In patent US10577362B2, “Substituted 2, 4-diamino-quinoline derivatives for use in the treatment of proliferative diseases” (GENOSCIENCE PHARMA, priority 2016, dated 2020) one finds viability and EC50 data, which are given here for seven molecules.

A word on the viability: it is a read-out of living cells in per cent, often relative to untreated cells. Usually EC50 stands for the midpoint of the concentration-response curve.

Experiment [1] deals with PANC-1 (prancreatic carcinoma) cell line. As to the kind of experiment: CellTiter-Glo luminescent cell viability assay, PANC-1. It is filed as cell-based. Particulars: Homo sapiens; for viability at 4 µM: PANC-1, 4 μM; for viability at 4 µM / viability at 10 µM: 72 h, % of signal of diluent-treated cultures; for viability at 10 µM: PANC-1, 10 μM; for EC50: PANC-1 cell line, 72 h incubation, CellTiter-Glo, read-out: EC50 (growth inhibition assay of PANC-1 cell line). In outline: (§1)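 Cells were cultured at 37 °C, 5% CO2 with 10% FBS; adherent lines were plated overnight, suspension MOLM-14 plated 1 h before dosing. Compounds in H2O or DMSO were added at various concentrations for 72 h, and viability was read by luminescence. EC50 is the dose reducing signal to 50% of diluent control.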
For orientation: In ATP-based viability assays light output follows the ATP content of the culture.

The test system of experiment [2] is A375 (malignant melanoma) cell line. As to the kind of experiment: CellTiter-Glo luminescent cell viability assay, A375. The settings on record: Homo sapiens, A-375; for viability at 4 µM: A375, compound at 4 μM; for viability at 4 µM / viability at 10 µM: 72 h; for viability at 10 µM: A375, compound at 10 μM; for EC50: A375 cell line, 72 h incubation, CellTiter-Glo, read-out: EC50, growth inhibition of A375. It is filed as cell-based, human. The procedure, abridged: (§2)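 Adherent lines plated overnight, MOLM-14 (suspension) 1 h before dosing, in medium with 10% FBS at 37 °C, 5% CO2. Compounds added at varying concentrations for 72 h; CellTiter-Glo luminescence read, EC50 as dose reducing signal to 50% of diluent-treated cells, at least duplicate points.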

The test system of experiment [3] is HepG2 (hepatocellular carcinoma) cell line. In words: CellTiter-Glo luminescent cell viability assay, HepG2. It is filed as cell-based, human. The settings on record: Homo sapiens; for viability at 4 µM / viability at 10 µM: HepG2, HepG, 72 h; for viability at 4 µM: compound at 4 μM; for viability at 10 µM: compound at 10 μM; for EC50: HepG2 cell line, 72 h incubation, CellTiter-Glo, read-out: EC50, growth inhibition of HepG2. In outline: as §1

Experiment [4] deals with MOLM-14 (acute myeloid leukemia) cell line. In words: CellTiter-Glo luminescent cell viability assay, MOLM-14. It is filed as cell-based, human. Particulars: Homo sapiens; for viability at 4 µM: MOLM-14, compound at 4 μM; for viability at 4 µM / viability at 10 µM: 72 h; for viability at 10 µM: MOLM-14, compound at 10 μM; for EC50: MOLM-14 cell line, 72 h incubation, CellTiter-Glo, read-out: EC50, growth inhibition of MOLM-14. The procedure, abridged: as §1

The subject of experiment [5] is Huh7 (hepatocellular carcinoma) cell line. In words: CellTiter-Glo luminescent cell viability assay, Huh7. It is filed as cell-based, human. Particulars: Homo sapiens, Huh-7; for viability at 4 µM: Huh7, compound at 4 μM; for viability at 4 µM / viability at 10 µM: 72 h; for viability at 10 µM: Huh7, compound at 10 μM; for EC50: Huh7 cell line, 72 h incubation, CellTiter-Glo, read-out: EC50, growth inhibition of Huh7. In outline: as §1

Experiment [6] concerns 786-O (renal adenocarcinoma) cell line. As to the kind of experiment: CellTiter-Glo luminescent cell viability assay, 786-O. It is filed as cell-based, human. Particulars: Homo sapiens, 786-0; for EC50: 786-O cell line, 72 h incubation, CellTiter-Glo, read-out: EC50, growth inhibition of 786-O; for viability at 4 µM / viability at 10 µM: 786-O, 72 h; for viability at 4 µM: compound at 4 μM; for viability at 10 µM: compound at 10 μM. The procedure, abridged: as §2

In experiment [7] the test system is HCT-116 (colorectal carcinoma) cell line. As to the kind of experiment: CellTiter-Glo luminescent cell viability assay, HCT-116. It is filed as cell-based, human. Particulars: Homo sapiens; for viability at 4 µM: HCT-116, compound at 4 μM; for viability at 4 µM / viability at 10 µM: 72 h; for viability at 10 µM: HCT-116, compound at 10 μM; for EC50: HCT-116 cell line, 72 h incubation, CellTiter-Glo, read-out: EC50, growth inhibition of HCT-116. The procedure, abridged: as §2

On to `CN(C)C1CCN(c2c(C#N)c(NCc3ccc(Cl)cc3)nc3ccccc23)CC1` [Compound 3184CN, 2-(4-chlorobenzylamino)-3-cyano-4-[4-(dimethylamino)piperidin-1-yl]quinoline], for which the viability at 4 µM in experiment [1] is 90.7%; in experiment [2] it was 59.5%; in experiment [3], 72.9%; in experiment [4], 71.8%; in experiment [5], 77.4%; in experiment [6], 54.1%. The viability at 4 µM in experiment [7] was found to be 60.5%. Moreover, the viability at 10 µM amounted to 24.1% in experiment [1]; 0.5% in experiment [2]; 0.7% in experiment [3]; 0.6% in experiment [4]; 0.6% in experiment [5]; 0.7% in experiment [6]. Besides, in experiment [7], the viability at 10 µM was 0.5%. Further, the EC50 in experiment [1] fell in the range of 5 to 10 µM; in experiment [2] it was 0.5 to 5 µM; in experiment [3] it was 0.5 to 5 µM; in experiment [4] it was 0.5 to 5 µM; in experiment [5], 5 to 10 µM; in experiment [6] it was 0.5 to 5 µM. Further, the EC50 in experiment [7] was 0.5 to 5 µM.
On to `CC(C)(C)NC1CCN(c2c(C#N)c(NCc3ccc(C(F)(F)F)cc3)nc3ccccc23)CC1` [Compound 3292CN, 2-[4-(trifluoromethyl)benzylamino]-3-cyano-4-[4-(tert-butylamino)piperidin-1-yl]quinoline], for which the viability at 4 µM in experiment [1] is 75.6%; in experiment [2] it was 0.3%; in experiment [3] it was 20.5%; in experiment [4] it was 54.7%; in experiment [5] it was 10.2%; in experiment [6] it was 0.5%. In addition, the viability at 4 µM in experiment [7] is 0.3%. The viability at 10 µM worked out at 25% in experiment [1]; 0.2% in experiment [2]; 0.2% in experiment [3]; 0.3% in experiment [4]; 0.2% in experiment [5]; 0.2% in experiment [6]. Also, the viability at 10 µM in experiment [7] was 0.1%. Moreover, the half-maximal effective concentration (EC50) in experiment [1] is 5 to 10 µM; in experiment [2], 0.5 to 5 µM; in experiment [3] it was 0.5 to 5 µM; in experiment [4] it was 5 to 10 µM; in experiment [5], 0.5 to 5 µM; in experiment [6] it was 0.5 to 5 µM. The EC50 in experiment [7] lay in the range of 0.5 to 5 µM.
On to `CN1CCC(NC2CCCN(c3c(C#N)c(NCc4ccc(Cl)cc4)nc4ccccc34)C2)CC1` (centres unmarked) [Compound 3162CN, 2-(4-chlorobenzylamino)-3-cyano-4-{3-[(1-methylpiperidin-4-yl)amino]piperidin-1-yl}quinoline], for which the viability at 4 µM came out at 51.6% in experiment [1]; 0.4% in experiment [2]; 0.3% in experiment [3]; 0.5% in experiment [4]; 0.5% in experiment [5]; 0.5% in experiment [6]. In experiment [7], the viability at 4 µM is 0.3%. The viability at 10 µM came to 0.4% in experiment [1]; 0.2% in experiment [2]; 0.2% in experiment [3]; 0.3% in experiment [4]; 0.2% in experiment [5]; 0.3% in experiment [6]. In addition, the viability at 10 µM in experiment [7] was found to be 0.2%. Also, the EC50 in experiment [2], in experiment [3], in experiment [4], in experiment [5], in experiment [6] and in experiment [7] was 0.5 to 5 µM throughout.
In the case of `CN1CCN(C2CCCN(c3c(C#N)c(NCc4ccc(Cl)cc4)nc4ccccc34)C2)CC1` (centres unmarked) [Compound 3168CN, 2-(4-chlorobenzylamino)-3-cyano-4-[3-(4-methylpiperazin-1-yl)piperidin-1-yl]quinoline], the viability at 4 µM in experiment [1] was found to be 100%; in experiment [2] it was 61%; in experiment [3], 87.8%; in experiment [4] it was 105%; in experiment [5], 80.1%; in experiment [6], 75.4%. In experiment [7], the viability at 4 µM came out at 40.7%. Moreover, the viability at 10 µM in experiment [1] is 22.3%; in experiment [2], 0.8%; in experiment [3], 0.6%; in experiment [4], 0.8%; in experiment [5], 0.7%; in experiment [6], 0.6%. Also, the viability at 10 µM in experiment [7] was determined as 0.5%. For the same molecule, the EC50 in experiment [1] lay within 5 to 10 µM; in experiment [2], 0.5 to 5 µM; in experiment [3], 5 to 10 µM; in experiment [4], 5 to 10 µM; in experiment [5] it was 0.5 to 5 µM; in experiment [6], 0.5 to 5 µM. For the same molecule, the EC50 in experiment [7] lay in the range of 0.5 to 5 µM.
For the molecule `N#Cc1c(NCc2ccc(Cl)cc2)nc2ccccc2c1N1CCC(NC2CCCC2)CC1` [Compound 3178CN, 2-(4-chlorobenzylamino)-3-cyano-4-[4-(cyclopentylamino)piperidin-1-yl]quinoline], the viability at 4 µM in experiment [1] was determined as 85.8%; in experiment [2], 0.4%; in experiment [3] it was 6%; in experiment [4] it was 90.4%; in experiment [5], 58.8%; in experiment [6], 1.3%. For the same molecule, in experiment [7], the viability at 4 µM is 0.3%. For the same molecule, the viability at 10 µM in experiment [1] is 0.8%; in experiment [2] it was 0.5%; in experiment [3], 0.5%; in experiment [4] it was 0.7%; in experiment [5], 0.6%; in experiment [6], 0.5%. Also, the viability at 10 µM in experiment [7] is 0.4%. For the same molecule, the EC50 in experiment [1] was 5 to 10 µM; in experiment [2] it was 0.5 to 5 µM; in experiment [3], 0.5 to 5 µM; in experiment [4], 0.5 to 5 µM; in experiment [5], 0.5 to 5 µM; in experiment [6] it was 0.5 to 5 µM. Further, the EC50 in experiment [7] was in the range of 0.5 to 5 µM.
In the case of `CNC1CCN(c2c(C#N)c(NCc3ccc(Cl)cc3)nc3ccccc23)CC1` [Compound 3172CN, 2-(4-chlorobenzylamino)-3-cyano-4-[4-(methylamino)piperidin-1-yl]quinoline], the viability at 4 µM in experiment [1] stood at 56.4%; in experiment [2], 0.4%; in experiment [3], 0.5%; in experiment [4], 0.5%; in experiment [5], 30.7%; in experiment [6], 0.5%. Besides, the viability at 4 µM in experiment [7] worked out at 0.2%. Moreover, the viability at 10 µM in experiment [1] was 0.5%; in experiment [2], 0.3%; in experiment [3] it was 0.4%; in experiment [4] it was 0.4%; in experiment [5] it was 0.4%; in experiment [6] it was 0.3%. In experiment [7], the viability at 10 µM was found to be 0.1%. Moreover, the EC50 in experiment [1] was in the range of 5 to 10 µM; in experiment [2], 0.5 to 5 µM; in experiment [3], 0.5 to 5 µM; in experiment [4], 0.5 to 5 µM; in experiment [5], 0.5 to 5 µM; in experiment [6], 0.5 to 5 µM. For the same molecule, in experiment [7], the EC50 was 0.5 to 5 µM.
Turning to `CC(C)(C)NC1CCN(c2c(C#N)c(Nc3ccc(F)cc3)nc3ccccc23)CC1` [Compound 3260CN, 2-(4-fluorophenylamino)-3-cyano-4-[4-(tert-butylamino)piperidin-1-yl]quinoline], the viability at 4 µM in experiment [1] turned out to be 84.1%; in experiment [2], 2.2%; in experiment [3] it was 49.1%; in experiment [4], 86.7%; in experiment [5], 50.7%; in experiment [6], 17.5%. In addition, the viability at 4 µM in experiment [7] is 1.2%. Besides, the viability at 10 µM in experiment [1] turned out to be 39.1%; in experiment [2], 0.4%; in experiment [3] it was 0.4%; in experiment [4], 0.9%; in experiment [5], 0.7%; in experiment [6], 0.3%. For the same molecule, in experiment [7], the viability at 10 µM was 0.3%. Also, the EC50 in experiment [1] is 5 to 10 µM; in experiment [2] it was 0.5 to 5 µM; in experiment [3], 0.5 to 5 µM; in experiment [4], 5 to 10 µM; in experiment [5], 5 to 10 µM; in experiment [6], 0.5 to 5 µM. In addition, the EC50 in experiment [7] lay in the range of 0.5 to 5 µM.
